According to ChEMBL document CHEMBL3112414, “Synthesis of 3-tetrazolylmethyl-4H-chromen-4-ones via Ugi-azide and biological evaluation against Entamoeba histolytica, Giardia lamblia and Trichomona vaginalis” (Bioorg Med Chem, 2014):

Legend:
Assay type in all cases: functional, organism-based
Giardia intestinalis = test: Antiprotozoal activity against trophozoite stage of Giardia lamblia IMSS:8909:1 assessed as growth inhibition after 48 hrs; details: Giardia duodenalis, IMSS:8909:1, 48 h
Entamoeba histolytica = test: Antiprotozoal activity against trophozoite stage of Entamoeba histolytica HM-1:IMSS assessed as growth inhibition after 48 hrs
Trichomonas vaginalis = test: Antiprotozoal activity against trophozoite stage of Trichomonas vaginalis GT3 assessed as growth inhibition

SMILES	IC50 (Giardia intestinalis)	IC50 (Entamoeba histolytica)	IC50 (Trichomonas vaginalis) [µM]
COc1ccc(-c2coc3cc(O)ccc3c2=O)cc1 [FORMONONETIN]	0.03 µg/mL	–	–
O=c1c(C(Nc2ccc([N+](=O)[O-])cc2)c2nnnn2C2CCCCC2)coc2ccccc12 (stereo not given)	247 µM	116 µM	205
COc1ccc(NC(c2coc3ccccc3c2=O)c2nnnn2-c2c(C)cccc2C)cc1OC (stereo not given)	240 µM	111 µM	192
CC(C)(C)n1nnnc1C(Nc1ccccc1I)c1coc2ccccc2c1=O (stereo not given)	207 µM	134 µM	280
O=c1c(C(Nc2ccccc2[N+](=O)[O-])c2nnnn2C2CCCCC2)coc2ccccc12 (stereo not given)	194 µM	124 µM	188
CC(C)(C)n1nnnc1C(Nc1ccc(Cl)cc1)c1coc2ccccc2c1=O (stereo not given)	269 µM	161 µM	371
CC(C)(C)n1nnnc1C(Nc1ccc(I)cc1)c1coc2ccccc2c1=O (stereo not given)	197 µM	142 µM	246
CC(C)(C)n1nnnc1C(Nc1ccccc1Br)c1coc2ccccc2c1=O (stereo not given)	242 µM	125 µM	234
COc1cc(NC(c2coc3ccccc3c2=O)c2nnnn2C2CCCCC2)cc(OC)c1OC (stereo not given)	171 µM	87.9 µM	176
O=c1c(C(Nc2ccc(I)cc2)c2nnnn2C2CCCCC2)coc2ccccc12 (stereo not given)	226 µM	117 µM	222
O=c1c(C(Nc2ccccc2I)c2nnnn2C2CCCCC2)coc2ccccc12 (stereo not given)	198 µM	122 µM	282
CC(C)(C)n1nnnc1C(Nc1ccccc1)c1coc2ccccc2c1=O (stereo not given)	316 µM	188 µM	432
O=c1c(C(Nc2ccccc2)c2nnnn2C2CCCCC2)coc2ccccc12 (stereo not given)	286 µM	183 µM	374
O=c1c(C(Nc2ccccc2Br)c2nnnn2C2CCCCC2)coc2ccccc12 (stereo not given)	253 µM	114 µM	195
O=c1c(C(Nc2ccc(Cl)cc2)c2nnnn2C2CCCCC2)coc2ccccc12 (stereo not given)	218 µM	176 µM	284
Cc1ncc([N+](=O)[O-])n1CCO [METRONIDAZOLE]	1.22 µg/mL	0.23 µg/mL	–
